The target in the assay is hPAD4 enzyme (Homo sapiens (Human), UniProt Q9UM07). The experiment in a line: RFMS1 assay (RapidFire mass spectrometry, BAEE substrate). As to conditions: 5 nM hPAD4, 250 μM BAEE, 30 min preincubation at 37° C., 90 min reaction; read-out: RFMS 1 IC50. Format: biochemical. The protocol:
Compounds were solubilized in 100% DMSO to achieve a 10 mM compound concentration. Compound stock solutions were stored at RT. A series of dilutions were prepared in DMSO and mixed 8 times with 20 μL mixing volume. Final top concentration of compound in the assay is 50 μM. Final assay conditions were as follows: • Reaction volume: 26 μl • Assay buffer: 25 mM hepes, pH 7.5, 5 mM NaCl, 1 mM DTT, 0.2 mg/ml BSA, 0.01% CHAPS, 50 µM Calcium, and 5 μM TPEN • Final concentrations: 5 nM hPAD4 enzyme, 250 µM BAEE, and 0.5% DMSO • Total incubation time: 30 mins compound and enzyme preincubation at 37° C., 90 min enzyme/substrate reaction, 30 min reaction with phenyl glyoxal at 37° C. • Stop solution: 40 μl 5% TCA in ACN • 0.13 μL of compound solution was added to 13 μL of 10 nM PAD4 in assay buffer. After […] min 13 μl of 500 µM of BAEE was added in 25 mM hepes, pH 7.5, 5 mM NaCl, 1 mM DTT, 0.2 mg/ml BSA, 0.01% CHAPS, 50 μM Calcium, 5 μM TPEN was added and the reaction incubated for 90 min at 37° C. The enzymatic reaction was quenched by addition of 15 μl of 6.1N TCA, 100% Final Concentration is 20%, 35 μl of 8.5 mM phenyl glyoxal (final concentration 4 mM) is then added and the reaction is incubated for 30 min at 37° C.
After 30 minutes the plates are spun down to remove all precipitate. The enzyme reaction was quenched with an equal volume of methanol containing internal standard (modified citrulline). Samples were loaded onto the Rapid Fire RF300 system (Agilent) wherein they were first sipped for 1000 ms and then directly loaded to a C18 separations cartridge using a mixture of acetonitrile containing 0.01% formic acid for 3000 ms desalting. The flow rate of the mobile phase was 1.5 ml/min. Once the samples were eluted from the cartridge, a mobile phase of acetonitrile containing 0.01% formic acid was used to move the samples into the mass spectrometer for 4000 ms at a flow rate of 1.25 ml/min/Sciex API5500 triple quadrupole mass spectrometer (Applied Biosystems) equipped with ESI was used to analyze the peptidyl citrulline and internal standard ions.
MRM transition of product and internal standard were monitored at m/z 424.5 to 350.4 and m/z 293 to 247 respectively. The dwell time for each transition was set at 200 ms, and the ESI voltage was used at 5500 with a source temperature of 400° C. Extracted ion peaks for each transition were integrated using the Rapid Fire Integrator software. Peak area of analyte was normalized with internal standard.).
Compounds having an activity designated as “A” provided an IC50≤10 nM; compounds having an activity designated as “B” provided an IC50 11-100 nM; compounds having an activity designated as “C” provided an IC50 101-500 nM; compounds having an activity designated as “D” provided an IC50 501-1000 nM; compounds having an activity designated as “E” provided an IC50>1000 nM.

Chain of hPAD4 enzyme (Q9UM07 whole entry): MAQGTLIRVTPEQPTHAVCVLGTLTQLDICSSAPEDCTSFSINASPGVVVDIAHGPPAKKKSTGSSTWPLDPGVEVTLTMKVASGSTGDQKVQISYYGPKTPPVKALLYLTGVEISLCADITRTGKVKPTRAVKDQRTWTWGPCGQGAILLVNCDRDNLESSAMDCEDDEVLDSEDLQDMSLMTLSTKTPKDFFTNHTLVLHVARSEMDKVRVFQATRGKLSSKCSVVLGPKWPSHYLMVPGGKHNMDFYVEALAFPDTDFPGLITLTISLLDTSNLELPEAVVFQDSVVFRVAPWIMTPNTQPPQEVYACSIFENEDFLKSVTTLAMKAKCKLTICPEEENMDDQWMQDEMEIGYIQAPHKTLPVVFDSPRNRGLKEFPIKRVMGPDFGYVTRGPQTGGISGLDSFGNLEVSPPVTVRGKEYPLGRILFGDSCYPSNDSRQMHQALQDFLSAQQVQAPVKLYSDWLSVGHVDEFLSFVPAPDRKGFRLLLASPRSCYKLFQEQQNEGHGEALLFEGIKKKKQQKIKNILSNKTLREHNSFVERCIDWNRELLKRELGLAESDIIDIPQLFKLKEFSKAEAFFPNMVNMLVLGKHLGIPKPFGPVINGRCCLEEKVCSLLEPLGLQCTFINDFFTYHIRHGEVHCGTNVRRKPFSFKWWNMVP

For orientation: IC50 means the concentration that inhibits the measured activity by half. `Cn1c(-c2cc3cccc(OC(F)Cn4ccnc4)c3n2CC2CC2)nc2cc3c(cc21)CCN(C[C@H](N)CF)C3=O` (single isomer, unassigned) [Example 226a]: the IC50 was not above 10 nM.

Regarding `Cc1cc(N2CCCS2(=O)=O)ccc1-c1ccc2cc(-c3nc4cc5c(cc4n3C)CCN(C[C@H](N)CF)C5=O)n(CC3CC3)c2n1` [Example 57, (S)-6-(2-amino-3-fluoropropyl)-2-(1-(cyclopropylmethyl)-6-(4-(1,1-dioxidoisothiazolidin-2-yl)-2-methylphenyl)-1H-pyrrolo[2,3-b]pyridin-2-yl)-1-methyl-1,6,7,8-tetrahydro-5H-imidazo[4,5-g]isoquinolin-5-one], the IC50 is 11 to 100 nM.

As to `Cc1cc(N2CC(C)(C)OC2=O)ccc1-c1ccc2cc(-c3nc4cc5c(cc4n3C)CCN(C[C@H](N)CF)C5=O)n(CC3CC3)c2n1` [Example 58, (S)-3-(4-(2-(6-(2-amino-3-fluoropropyl)-1-methyl-5-oxo-5,6,7,8-tetrahydro-1H-imidazo[4,5-g]isoquinolin-2-yl)-1-(cyclopropylmethyl)-1H-pyrrolo[2,3-b]pyridin-6-yl)-3-methylphenyl)-5,5-dimethyloxazolidin-2-one], the IC50 was 11 to 100 nM.

`CCc1nc(N2CCOC2=O)ccc1-c1ccc2cc(-c3nc4cc5c(cc4n3C)CCN(C[C@H](N)CF)C5=O)n(CC3CC3)c2n1` [Example 61, (S)-3-(5-(2-(6-(2-amino-3-fluoropropyl)-1-methyl-5-oxo-5,6,7,8-tetrahydro-1H-imidazo[4,5-g]isoquinolin-2-yl)-1-(cyclopropylmethyl)-1H-pyrrolo[2,3-b]pyridin-6-yl)-6-ethylpyridin-2-yl)oxazolidin-2-one]: the half-maximal inhibitory concentration (IC50) fell in the range of 11 to 100 nM.

For `COc1cccc2cc(-c3nc4cc5c(cc4n3C)CCN(C[C@H](N)CF)C5=O)n(CCOC(F)F)c12` [Example 135, (S)-6-(2-amino-3-fluoropropyl)-2-(1-(2-(difluoromethoxy)ethyl)-7-methoxy-1H-indol-2-yl)-1-methyl-1,6,7,8-tetrahydro-5H-imidazo[4,5-g]isoquinolin-5-one], the half-inhibitory concentration (IC50) lay within 11 to 100 nM.

As to `C[C@H](COc1cccc2cc(-c3nc4cc5c(cc4n3C)CCN(C[C@H](N)CF)C5=O)n(CC3CC3)c12)n1cnc(F)c1` [Example 217, 6-((S)-2-amino-3-fluoropropyl)-2-(1-(cyclopropylmethyl)-7-((R)-2-(4-fluoro-1H-imidazol-1-yl)propoxy)-1H-indol-2-yl)-1-methyl-1,6,7,8-tetrahydro-5H-imidazo[4,5-g]isoquinolin-5-one], the IC50 was not above 10 nM.

Take `C[C@H](COc1cccc2cc(-c3nc4cc5c(cc4n3C)CCN(C[C@@H](C)N)C5=O)n(CC3CC3)c12)n1cnc(F)c1` [Example 230, 6-((R)-2-aminopropyl)-2-(1-(cyclopropylmethyl)-7-((R)-2-(4-fluoro-1H-imidazol-1-yl)propoxy)-1H-indol-2-yl)-1-methyl-1,6,7,8-tetrahydro-5H-imidazo[4,5-g]isoquinolin-5-one]: the IC50 is not above 10 nM.

As for `COc1cccc2cc(-c3nc4cc5c(cc4n3C)CCN(C[C@H]3COCCN3)C5=O)n(CCOC(F)F)c12` [Example 233, (S)-2-(1-(2-(difluoromethoxy)ethyl)-7-methoxy-1H-indol-2-yl)-1-methyl-6-(morpholin-3-ylmethyl)-1,6,7,8-tetrahydro-5H-imidazo[4,5-g]isoquinolin-5-one], the IC50 lay in the range of 101 to 500 nM.

Take `C[C@H](COc1cccc2cc(-c3nc4cc5c(cc4n3C)CCN(C[C@H]3COCCN3)C5=O)n(CC3CC3)c12)n1cnc(F)c1` [Example 235, 2-(1-(cyclopropylmethyl)-7-((R)-2-(4-fluoro-1H-imidazol-1-yl)propoxy)-1H-indol-2-yl)-1-methyl-6-(((S)-morpholin-3-yl)methyl)-1,6,7,8-tetrahydro-5H-imidazo[4,5-g]isoquinolin-5-one]: the half-inhibitory concentration (IC50) is not above 10 nM.

For the compound `COc1cccc2cc(-c3nc4cc5c(c(F)c4n3C)CCN(C[C@H]3COCCN3)C5=O)n(CC3CC3)c12` [Example 240, (S)-2-(1-(cyclopropylmethyl)-7-methoxy-1H-indol-2-yl)-9-fluoro-1-methyl-6-(morpholin-3-ylmethyl)-1,6,7,8-tetrahydro-5H-imidazo[4,5-g]isoquinolin-5-one], the IC50 fell in the range of 101 to 500 nM.

On to `C[C@H](COc1cccc2cc(-c3nc4cc5c(c(F)c4n3C)CCN(C[C@H](N)CF)C5=O)n(CC3CC3)c12)n1cnc(F)c1` [Example 241, 6-((S)-2-amino-3-fluoropropyl)-2-(1-(cyclopropylmethyl)-7-((R)-2-(4-fluoro-1H-imidazol-1-yl)propoxy)-1H-indol-2-yl)-9-fluoro-1-methyl-1,6,7,8-tetrahydro-5H-imidazo[4,5-g]isoquinolin-5-one], for which the IC50 was not above 10 nM.

Take `C[C@H](COc1cccc2cc(-c3nc4cc5c(c(F)c4n3C)CCN(C[C@H]3COCCN3)C5=O)n(CC3CC3)c12)n1cnc(F)c1` [Example 242, 2-(1-(cyclopropylmethyl)-7-((R)-2-(4-fluoro-1H-imidazol-1-yl)propoxy)-1H-indol-2-yl)-9-fluoro-1-methyl-6-(((S)-morpholin-3-yl)methyl)-1,6,7,8-tetrahydro-5H-imidazo[4,5-g]isoquinolin-5-one]: the half-maximal inhibitory concentration (IC50) is not above 10 nM.

Take `CC(=O)N1CCC(c2cccc3cc(-c4nc5cc6c(cc5n4C)CCN(C[C@H]4COCCN4)C6=O)n(CC4CC4)c23)CC1` [Example 243, (S)-2-(7-(1-acetylpiperidin-4-yl)-1-(cyclopropylmethyl)-1H-indol-2-yl)-1-methyl-6-(morpholin-3-ylmethyl)-1,6,7,8-tetrahydro-5H-imidazo[4,5-g]isoquinolin-5-one]: the concentration for half-maximal inhibition (IC50) was in the range of 11 to 100 nM.

On to `COCC(=O)N1CCC(c2cccc3cc(-c4nc5cc6c(cc5n4C)CCN(C[C@H]4COCCN4)C6=O)n(CC4CC4)c23)CC1` [Example 244, (S)-2-(1-(cyclopropylmethyl)-7-(1-(2-methoxyacetyl)piperidin-4-yl)-1H-indol-2-yl)-1-methyl-6-(morpholin-3-ylmethyl)-1,6,7,8-tetrahydro-5H-imidazo[4,5-g]isoquinolin-5-one], for which the IC50 was 11 to 100 nM.

As for `Cc1cc(C(N)=O)c(F)cc1-c1ccc2cc(-c3nc4cc5c(cc4n3C)CCN(C[C@H]3COCCN3)C5=O)n(CC3CC3)c2n1` [Example 245, (S)-4-(1-(cyclopropylmethyl)-2-(1-methyl-6-(morpholin-3-ylmethyl)-5-oxo-5,6,7,8-tetrahydro-1H-imidazo[4,5-g]isoquinolin-2-yl)-1H-pyrrolo[2,3-b]pyridin-6-yl)-2-fluoro-5-methylbenzamide], the IC50 lay in the range of 101 to 500 nM.

Consider `Cc1cc(N2CCCS2(=O)=O)ccc1-c1ccc2cc(-c3nc4cc5c(cc4n3C)CCN(C[C@H]3COCCN3)C5=O)n(CC3CC3)c2n1` [Example 246, (S)-2-(1-(cyclopropylmethyl)-6-(4-(1,1-dioxidoisothiazolidin-2-yl)-2-methylphenyl)-1H-pyrrolo[2,3-b]pyridin-2-yl)-1-methyl-6-(morpholin-3-ylmethyl)-1,6,7,8-tetrahydro-5H-imidazo[4,5-g]isoquinolin-5-one], for which the IC50 lay in the range of 11 to 100 nM.

Consider `Cc1cc(N2CC(C)(C)OC2=O)ccc1-c1ccc2cc(-c3nc4cc5c(cc4n3C)CCN(C[C@H]3COCCN3)C5=O)n(CC3CC3)c2n1` [Example 247, (S)-3-(4-(1-(cyclopropylmethyl)-2-(1-methyl-6-(morpholin-3-ylmethyl)-5-oxo-5,6,7,8-tetrahydro-1H-imidazo[4,5-g]isoquinolin-2-yl)-1H-pyrrolo[2,3-b]pyridin-6-yl)-3-methylphenyl)-5,5-dimethyloxazolidin-2-one], for which the IC50 was 11 to 100 nM.

Turning to `Cn1c(-c2cc3ccc(-c4cccc(O)c4F)nc3n2CC2CC2)nc2cc3c(cc21)CCN(C[C@H]1COCCN1)C3=O` [Example 248, (S)-2-(1-(cyclopropylmethyl)-6-(2-fluoro-3-hydroxyphenyl)-1H-pyrrolo[2,3-b]pyridin-2-yl)-1-methyl-6-(morpholin-3-ylmethyl)-1,6,7,8-tetrahydro-5H-imidazo[4,5-g]isoquinolin-5-one], the IC50 lay in the range of 501 to 1000 nM.

These data come from patent US20250346592A1 (Celgene Corporation, priority 2022, published 2025).
